Assay results: PMC11085077, “Designing Antitrypanosomal and Antileishmanial BODIPY Derivatives: A Computational and In Vitro Assessment” (Molecules, 2024)
Where “and” joins values, the source holds several entries; their conditions need not be identical. Equal entries are not always repeated.

Legend:
[1] = tested on: T. brucei BSF; assay: Antitrypanosomal activity, alamarBlue assay; assay type: cell-based, Trypanosoma brucei; details: for Selectivity Index (SI) T. brucei: SI = IC50 MRC-5/IC50 parasite; for IC50: bloodstream form, 72 h incubation, alamarBlue, error reported as σ; for antitrypanosomal activity (in words): classification used for docking analysis
Experimental: The in vitro antitrypanosomal and antileishmanial activity of the BODIPY derivatives were evaluated on the bloodstream form (BSF) of T. brucei and the promastigote form of L. major parasites. The toxicity of the compounds was determined after 72 h of incubation using the alamarBlue assay (for T. brucei) and the MTT assay (for L. major). The cytotoxicity of the compounds on a healthy human cell line (human lung fibroblast, MRC-5) was also determined after 72 h of incubation using the alamarBlue assay. The data were expressed as the half maximal inhibitory concentration (IC50). The selectivity index (SI) of each derivative was calculated by dividing the IC50 of MRC-5 cells into the IC50 of T. brucei or L. major.
T. brucei (Lister 427, antigenic type MiTat 1.2, clone 221a, bloodstream forms, “single marker” S427 (S16)) were cultured at 37 °C, 5% CO2 in HMI-9 medium supplemented with 10% heat-inactivated fetal bovine serum (hiFBS, Invitrogen, Carlsbad, CA, USA), as previously described.
The antitrypanosomal activity of the BODIPY derivatives was determined by the alamarBlue® assay (ThermoFisher Scientific, Waltham, MA, USA). The stock solutions of the compounds were prepared in DMSO and the final DMSO percentage in each well was adjusted to be less than 1%. A total of 2 × 10^4 parasites per mL were incubated at 37 °C, 5% CO2 in 96-well plates (50 μL/well) alone or in the presence of an increasing concentration of compounds for 72 h. A total of 20 μL of resazurin solution (110 ng/mL) was then added to each well, and the parasites were incubated for 4 h at 37 °C. Finally, cells were lysed with 50 μL per well of SDS 3%. The plate was incubated at 37 °C for an extra hour and then, fluorescence intensity was measured with an Infinite F200 plate reader (Tecan Austria, GmbH, Grödig, Austria), exciting at 550 nm and recording the emission at 590 nm. The results are expressed as the concentration of a compound that reduces cell growth by 50% versus untreated control cells (IC50). Data are presented as the average of at least three independent measurements, all conducted in triplicate conditions.

[2] = tested on: MRC-5 cell line (human lung fibroblast); assay: Cytotoxicity, alamarBlue assay; assay type: cell-based; details: 72 h incubation, error reported as σ
Experimental: The in vitro antitrypanosomal and antileishmanial activity of the BODIPY derivatives were evaluated on the bloodstream form (BSF) of T. brucei and the promastigote form of L. major parasites. The toxicity of the compounds was determined after 72 h of incubation using the alamarBlue assay (for T. brucei) and the MTT assay (for L. major). The cytotoxicity of the compounds on a healthy human cell line (human lung fibroblast, MRC-5) was also determined after 72 h of incubation using the alamarBlue assay. The data were expressed as the half maximal inhibitory concentration (IC50). The selectivity index (SI) of each derivative was calculated by dividing the IC50 of MRC-5 cells into the IC50 of T. brucei or L. major. MRC-5 cell line (human lung fibroblast) was grown in a monolayer at 37 °C, 5% CO2 in DMEM medium (1 g/L glucose) supplemented with 10% hiFBS, 100 U/mL penicillin, […] and 2 mM L-glutamine. Cytotoxicity was measured in MRC-5 through alamarBlue® assay (ThermoFisher Scientific). The stock solutions of the compounds were prepared in DMSO and the final DMSO percentage in each well was adjusted to be less than 1%. A total of 5 × 10^3 cells per mL were seeded in 96-well plates (100 μL/well) with 24 h of incubation time before compound addition at 37 °C, 5% CO2. Then, the compounds were added at increasing concentrations (from 0 to 100 μM) and the plates were incubated for 72 h. A total of 20 μL of resazurin solution (110 ng/mL) was added to each well and cells were incubated for 4 h. Then, cells were lysed with 50 μL/well of 3% SDS. The plate was incubated at 37 °C for an extra hour and then, the fluorescence intensity was measured at the Infinite F200 plate reader (TECAN Austria, GmbH), exciting at 550 nm and recording the emission at 590 nm. The results are expressed as the concentration of a compound that reduces cell growth by 50% versus untreated control cells (IC50). Data are presented as the average of at least three independent measurements, all conducted in triplicate conditions.

[3] = tested on: L. major promastigotes; assay: Antileishmanial activity, MTT-based assay; assay type: cell-based, Leishmania major; details: for Selectivity Index (SI) L. major: SI = IC50 MRC-5/IC50 parasite; for IC50: promastigotes, 72 h incubation, MTT, error reported as σ; for antileishmanial activity (in words): classification used for docking analysis
Experimental: The in vitro antitrypanosomal and antileishmanial activity of the BODIPY derivatives were evaluated on the bloodstream form (BSF) of T. brucei and the promastigote form of L. major parasites. The toxicity of the compounds was determined after 72 h of incubation using the alamarBlue assay (for T. brucei) and the MTT assay (for L. major). The cytotoxicity of the compounds on a healthy human cell line (human lung fibroblast, MRC-5) was also determined after 72 h of incubation using the alamarBlue assay. The data were expressed as the half maximal inhibitory concentration (IC50). The selectivity index (SI) of each derivative was calculated by dividing the IC50 of MRC-5 cells into the IC50 of T. brucei or L. major. L. major (MHOM/IL/80/Friedlin) promastigotes were cultured at 28 °C, 5% CO2 in modified RPMI-1640 medium (Invitrogen, Carlsbad, CA, USA) supplemented with 10% hiFBS [49]. Parasites were maintained in culture in their […] growth phase (below 2 million parasites per mL for T. brucei and 10 million parasites per mL for L. major). The antileishmanial activity of the BODIPY derivatives was assessed using an MTT-based assay (Sigma-Aldrich, St. Louis, MO, USA). The stock solutions of the compounds were prepared in DMSO and the final DMSO percentage in each well was adjusted to be less than 1%. A total of 4 × 10^6 parasites per mL were incubated at 28 °C in 96-well plates (50 μL/well) alone or in the presence of an increasing concentration of compounds DMSO for 72 h. A total of 10 μL of MTT (5 mg/mL) were added to each well and parasites were incubated for 4 h at 28 °C. Finally, cells were lysed with 50 μL/well of 20% SDS. The plate was incubated at 37 °C for an extra hour and then, absorbance was measured at the Infinite F200 plate reader (TECAN Austria, GmbH, Grödig, Austria) at a wavelength of 540 nm. The IC50 was calculated as described above. Data are presented as the average of at least three independent measurements, all conducted in triplicate conditions.

SMILES | Selectivity Index (SI) T. brucei [1] | IC50 [1] [µM] | IC50 ([2]; healthy human lung fibroblasts) | Selectivity Index (SI) L. major [3] | IC50 [3] [µM] | antitrypanosomal activity (in words) [1] | antileishmanial activity (in words) [3] | IC50 ([1]; Trypanosoma brucei) [µM] | IC50 ([2]; MRC5, healthy human lung fibroblasts) [µM] | IC50 ([3]; Leishmania major) [µM]
CC1=CC(C)=[N+]2C1=C(c1ccc(N(C)C)c3ccccc13)c1c(C)c(-c3nc4ccccc4[nH]3)c(C)n1[B-]2(F)F [Compound 3b] | >3.59 | 27.9 ± 5.42 | > 100 µM | >1.18 | 84.39 ± 0.32 | – | – | – | – | –
CC1=CC(C)=[N+]2C1=C(c1nccs1)c1c(C)cc(C)n1[B-]2(F)F [Compound 1g] | 1.49 | 55.7 ± 1.65 | 82.8 ± 1.2 µM | <0.83 | > 100 | – | – | – | – | –
CC1=C(C=O)C(C)=[N+]2C1=C(c1c3ccccc3cc3ccccc13)c1c(C)cc(C)n1[B-]2(F)F [Compound 2c] | 11 and 10.84 | 6.17 ± 2.35 | 66.9 ± 7.65 µM | 6.47 | 10.3 ± 1.59 | present antitrypanosomal activity | present antileishmanial activity | – | – | –
CC1=CC(C)=[N+]2C1=C(c1cccs1)c1c(C)cc(C)n1[B-]2(F)F [Compound 1f] | 1.57 | 36.9 ± 7.43 | 58 ± 4.76 µM | 0.90 | 64.5 ± 8.43 | – | – | – | – | –
CC1=C(C=O)C(C)=[N+]2C1=C(c1cccs1)c1c(C)cc(C)n1[B-]2(F)F [Compound 2f] | 6.54 | 12.4 ± 4.02 | 80.9 ± 1.06 µM | 4.10 | 19.7 ± 3.21 | present antitrypanosomal activity | does not present antileishmanial activity | – | – | –
CC1=CC(C)=[N+]2C1=C(c1ccc3ccccc3n1)c1c(C)cc(C)n1[B-]2(F)F [Compound 1h] | 1.24 | 77.4 ± 3.46 | 95.6 ± 3.45 µM | <0.96 | > 100 | – | – | – | – | –
CC1=CC(C)=[N+]2C1=C(c1ccc(N(C)C)c3ccccc13)c1c(C)cc(C)n1[B-]2(F)F [Compound 1b] | 4.21 | 18.2 ± 3.63 | 76.8 ± 5.33 µM | 16 and 15.93 | 4.84 ± 1.56 | – | present antileishmanial activity | – | – | –
CC1=C(C=O)C(C)=[N+]2C1=C(c1ccccc1)c1c(C)cc(C)n1[B-]2(F)F [Compound 2a] | 1.22 | 74.7 ± 6.93 | 91.33 ± 0.66 µM | <0.91 | > 100 | – | – | – | – | –
CC1=CC(C)=[N+]2C1=C(c1ccccc1)c1c(C)cc(C)n1[B-]2(F)F [Compound 1a] | 1.76 | 38.2 ± 7.29 | 67.2 ± 4.39 µM | 3.42 | 19.7 ± 3.94 | – | – | – | – | –
CC1=C(C=O)C(C)=[N+]2C1=C(c1ccc(N(c3ccccc3)c3ccc(C=O)cc3)cc1)c1c(C)cc(C)n1[B-]2(F)F [Compound 3d] | 2.28 | – | – | <0.87 | – | – | – | 38.3 ± 0.93 | 87.1 ± 3.28 | > 100
CC1=C(c2nc3ccccc3[nH]2)C(C)=[N+]2C1=C(c1ccccc1)c1c(C)cc(C)n1[B-]2(F)F [Compound 3a] | 11.38 | 5.5 ± 0.21 | 63 µM and 62.6 µM | – | > 100 | present antitrypanosomal activity | – | – | – | –
CCn1c2ccccc2c2cc(C3=C4C(C)=C(C=O)C(C)=[N+]4[B-](F)(F)n4c(C)cc(C)c43)ccc21 [Compound 2e] | 5.89 | 15.2 ± 0.86 | 89.7 ± 9.08 µM | 4.33 | 20.7 ± 1.79 | – | – | – | – | –
CCn1c2ccccc2c2cc(C3=C4C(C)=CC(C)=[N+]4[B-](F)(F)n4c(C)cc(C)c43)ccc21 [Compound 1e] | 4.77 | 18.7 ± 2.67 | 88.9 ± 3.82 µM | <0.89 | > 100 | – | – | – | – | –
CC1=CC(C)=[N+]2C1=C(c1ccc(N(c3ccccc3)c3ccccc3)cc1)c1c(C)cc(C)n1[B-]2(F)F [Compound 1d] | 1.87 | 48.8 ± 3.29 | 91.3 ± 6.31 µM | <0.91 | > 100 | – | – | – | – | –
CC1=CC(C)=[N+]2C1=C(c1c3ccccc3cc3ccccc13)c1c(C)cc(C)n1[B-]2(F)F [Compound 1c] | 1.07 | 77.1 ± 2.98 | 82.14 ± 0.03 µM | 18 | 5.41 ± 0.43 | – | present antileishmanial activity | – | – | –
